The values that follow come from patent publication US20230278987A1, “Antimicrobial Compounds and Methods” (Curza Global, LLC, priority 2019, published 2023).

Each structure is given as a SMILES string. Values after ≈ are worked out from the molar mass of the structure shown. Structures can show the parent of a compound that is named as a salt. Where two headings read alike, the source gives them in different places.

The subject of assay [1] is E.coli (Ec). Description: Broth microdilution MIC against E.coli (Ec). To be noted: Escherichia coli. Type of assay: cell-based. Summed up: (§1)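 Susceptibility testing used a CLSI-based broth microdilution in CAMHB, with bicarbonate (6.25 or 25 mM final) or human serum (0-50%) as optional supplements. Each compound was run in triplicate at 5 × 10^4 CFU/well.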
(In general: Broth dilution looks for growth in wells or tubes with falling amounts of substance.)

Assay [2] has as its system E.faecalis (Ef). Description: Broth microdilution MIC against E.faecalis (Ef). Type of assay: cell-based. To be noted: Enterococcus faecalis. The gist of the method:
as §1

Assay [3] deals with E.coli S30 extract (bacterial protein synthesis). Description: E.coli S30 extract: inhibition of bacterial protein synthesis (luciferase). It counts as biochemical. To be noted: 37° C. for 1 hour. The gist of the method:
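Compounds (8-point 2-fold series) were incubated 1 h at 37 °C with E. coli S30 extract, premix, amino acids and pBESTluc plasmid. Reactions were chilled, luciferase reagent added and luminescence measured. Inhibition expressed relative to water controls; background from reactions lacking DNA.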

Assay [4] deals with S.aureus (Sa). Briefly: Broth microdilution MIC against S.aureus (Sa). Type of assay: cell-based. To be noted: Staphylococcus aureus. Summed up:
as §1

In assay [5] the test system is P.aeruginosa (Pa). Briefly: Broth microdilution MIC against P.aeruginosa (Pa). It counts as cell-based. To be noted: Pseudomonas aeruginosa. Summed up:
as §1

Assay [6] has as its system A.baumannii (Ab). Description: Broth microdilution MIC against A.baumannii (Ab). To be noted: Acinetobacter baumannii. Type of assay: cell-based. Summed up:
as §1

In assay [7] the target is Rabbit Reticulocyte Lysate (eukaryotic protein synthesis). Briefly: Rabbit Reticulocyte Lysate: inhibition of eukaryotic protein synthesis (luciferase). To be noted: 30° C. for 90 minutes, read-out: retic. IC50. Type of assay: biochemical. The gist of the method:
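Nuclease-treated rabbit reticulocyte lysate translating luciferase control RNA, incubated 90 min at 30° C with eight 2-fold compound dilutions. Luminescence measured after adding luciferase reagent; % inhibition relative to no-inhibitor wells, with no-RNA wells as background.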

Setting [8] is: CAMHB supplemented with sodium bicarbonate 6.25 mM, read-out: E. coli + bicarb 6.25 (MIC).
Where [9] appears, read: CAMHB supplemented with sodium bicarbonate 6.25 mM, read-out: Ef +bicarb 6.25 (MIC).
Setting [10] is: CAMHB supplemented with sodium bicarbonate 6.25 mM, read-out: Sa + bicarb 6.25 (MIC).
Setting [11] is: CAMHB supplemented with sodium bicarbonate 6.25 mM, read-out: Pa +bicarb 6.25 (MIC).
Where [12] appears, read: CAMHB supplemented with sodium bicarbonate 6.25 mM, read-out: Ab +bicarb 6.25 (MIC).
Setting [13] is: read-out: E. coli + bicarb 6.25 (MIC).
[14] abbreviates: read-out: Ef +bicarb 6.25 (MIC).
[15] abbreviates: read-out: Sa + bicarb 6.25 (MIC).
Where [16] appears, read: read-out: Pa +bicarb 6.25 (MIC).
The mark [17] stands for this setting: read-out: Ab +bicarb 6.25 (MIC).

Turning to `CC(C)(N)C(=O)N1CCN(C(=O)Nc2ccn(-c3ccc4c(c3)CCC(N[C@H]3C[C@H](N)C3)C4)c(=O)n2)CC1` (stereo partly shown) [Compound 29], the MIC in assay [1] (setting [8]) is less than 8 µg/mL; in assay [2] (setting [9]), 8 to 32 µg/mL (≈ 15.3 to 61.2 µM); in assay [4] (setting [10]) it was less than 8 µg/mL; in assay [5] (setting [11]), greater than 32 µg/mL; in assay [6] (setting [12]), greater than 32 µg/mL. In addition, the 50% inhibitory concentration (IC50) is less than 500 nM in assay [3] and no less than 1000 nM in assay [7].
Take `CC(C)(N)C(=O)N1CCN(C(=O)Nc2ccn(-c3ccc4c(c3)CCC(N[C@H]3C[C@@H](N)C3)C4)c(=O)n2)CC1` (stereo partly drawn) [Compound 30, 4-Amino-2-Methylpropanoyl)-N-(1-(6-(((Cis-3-Aminocyclobutyl)Amino)-5,6,7,8-Tetrahydronaphthalen-2-Yl)-2-Oxo-1,2-Dihydropyrimidin-4-Yl)Piperazine-1-Carboxamide Hydrochloride Salt]: the MIC in assay [1] (setting [8]) is less than 8 µg/mL; in assay [2] (setting [9]) it was 8 to 32 µg/mL; in assay [4] (setting [10]) it was less than 8 µg/mL; in assay [5] (setting [11]), greater than 32 µg/mL; in assay [6] (setting [12]), greater than 32 µg/mL. Further, the 50% inhibitory concentration (IC50) in assay [3] was less than 500 nM; in assay [7], no less than 1000 nM.
With `CC(C)(N)C(=O)N1CCN(C(=O)Nc2ccn(-c3ccc4c(c3)CCC(NC[C@H]3C[C@H](N)C3)C4)c(=O)n2)CC1` (stereo partly shown) [Compound 31], the minimum inhibitory concentration (MIC) in assay [1] (setting [8]) is less than 8 µg/mL; in assay [2] (setting [9]) it was 8 to 32 µg/mL (≈ 14.9 to 59.6 µM); in assay [4] (setting [10]), less than 8 µg/mL; in assay [5] (setting [11]) it was greater than 32 µg/mL; in assay [6] (setting [12]), greater than 32 µg/mL. The IC50 in assay [3] is less than 500 nM; in assay [7], no less than 1000 nM.
On to `CC(C)(N)C(=O)N1CCN(C(=O)Nc2ccn(-c3ccc4c(c3)CCC(NC[C@H]3C[C@@H](N)C3)C4)c(=O)n2)CC1` (stereo partly shown) [Compound 32], for which the MIC in assay [1] (setting [8]) is less than 8 µg/mL; in assay [2] (setting [9]), 8 to 32 µg/mL (≈ 14.9 to 59.6 µM); in assay [4] (setting [10]), less than 8 µg/mL; in assay [5] (setting [11]), greater than 32 µg/mL; in assay [6] (setting [12]), greater than 32 µg/mL. Further, the IC50 was less than 500 nM in assay [3] and no less than 1000 nM in assay [7].
Consider `CC(C)(N)C(=O)N1CCN(C(=O)Nc2ccn(-c3ccc4c(c3)CCN(C3CCC(N)CC3)C4)c(=O)n2)CC1` (stereo not shown) [Compound 35], for which the MIC in assay [1] (setting [8]) is less than 8 µg/mL; in assay [2] (setting [9]), greater than 32 µg/mL; in assay [4] (setting [10]), less than 8 µg/mL; in assay [5] (setting [11]), greater than 32 µg/mL; in assay [6] (setting [12]) it was greater than 32 µg/mL. The half-maximal inhibitory concentration (IC50) in assay [3] was less than 500 nM; in assay [7], no less than 1000 nM.
For `CC(C)(N)C(=O)N1CCN(C(=O)Nc2ccn(-c3ccc4c(c3)CC(N[C@H]3CC[C@H](N)C3)C4)c(=O)n2)CC1` (stereo partly shown) [Compound 36, Hydrochloride Salt], the minimum inhibitory concentration (MIC) in assay [1] (setting [8]) is less than 8 µg/mL; in assay [2] (setting [9]), greater than 32 µg/mL; in assay [4] (setting [10]), 8 to 32 µg/mL; in assay [5] (setting [11]) it was greater than 32 µg/mL; in assay [6] (setting [12]) it was greater than 32 µg/mL. For the same compound, the half-inhibitory concentration (IC50) in assay [3] and in assay [7] was less than 500 nM in each case.
As for `CC(C)(N)C(=O)N1CCN(C(=O)Nc2ccn(-c3ccc4c(c3)CC(NC[C@H]3C[C@H](N)C3)C4)c(=O)n2)CC1` (stereo partly shown) [Compound 37, Hydrochloride Salt], the MIC is less than 8 µg/mL in assay [1] (setting [8]); greater than 32 µg/mL in assay [2] (setting [9]); 8 to 32 µg/mL in assay [4] (setting [10]); greater than 32 µg/mL in assay [5] (setting [11]); greater than 32 µg/mL in assay [6] (setting [12]). Moreover, the concentration for half-maximal inhibition (IC50) in assay [3] was less than 500 nM; in assay [7], no less than 1000 nM.
For the compound `CC(C)(N)C(=O)N1CCN(C(=O)Nc2ccn(-c3ccc4c(c3)CC(N[C@H]3CC[C@H](N)CC3)C4)c(=O)n2)CC1` (stereo partly shown) [Compound 38, Hydrochloride Salt], the minimal inhibitory concentration (MIC) was less than 8 µg/mL in assay [1] (setting [8]); greater than 32 µg/mL in assay [2] (setting [9]); 8 to 32 µg/mL in assay [4] (setting [10]); greater than 32 µg/mL in assay [5] (setting [11]); greater than 32 µg/mL in assay [6] (setting [12]). The IC50 in assay [3] was less than 500 nM; in assay [7] it was no less than 1000 nM.
On to `CC(C)(N)C(=O)N1CCN(C(=O)Nc2ccn(-c3ccc4c(c3)CCC(N3CC(N)C3)C4)c(=O)n2)CC1` (stereo not shown) [Compound 39], for which the MIC was 8 to 32 µg/mL in assay [1] (setting [8]); greater than 32 µg/mL in assay [2] (setting [9]); 8 to 32 µg/mL in assay [4] (setting [10]); greater than 32 µg/mL in assay [5] (setting [11]); greater than 32 µg/mL in assay [6] (setting [12]). The concentration for half-maximal inhibition (IC50) is 500 to 1000 nM in assay [3] and no less than 1000 nM in assay [7].
Take `CC(C)(N)C(=O)N1CCN(C(=O)Nc2ccn(-c3ccc4c(c3)CCC(N3CC(CN)C3)C4)c(=O)n2)CC1` (stereo not shown) [Compound 40, Hydrochloride Salt]: the minimum inhibitory concentration (MIC) in assay [1] (setting [8]) is less than 8 µg/mL; in assay [2] (setting [9]) it was 8 to 32 µg/mL; in assay [4] (setting [10]) it was less than 8 µg/mL; in assay [5] (setting [11]) it was greater than 32 µg/mL; in assay [6] (setting [12]), greater than 32 µg/mL. The half-maximal inhibitory concentration (IC50) is less than 500 nM in assay [3] and no less than 1000 nM in assay [7].
As for `CC(C)(N)C(=O)N1CCN(C(=O)Nc2ccn(-c3ccc4c(c3)CCC(N3CCC(CCN)CC3)C4)c(=O)n2)CC1` (stereo not shown) [Compound 42, 4-(2-Amino-2-methylpropanoyl)-N-(1-(6-(4-(2-aminoethyl)piperidin-1-yl)-5,6,7,8-tetrahydronaphthalen-2-yl)-2-oxo-1,2-dihydropyrimidin-4-yl)piperazine-1-carboxamide hydrochloride salt], the MIC in assay [1] (setting [13]) was less than 8 µg/mL; in assay [2] (setting [14]), greater than 32 µg/mL; in assay [4] (setting [15]), 8 to 32 µg/mL; in assay [5] (setting [16]), greater than 32 µg/mL; in assay [6] (setting [17]) it was greater than 32 µg/mL. The half-inhibitory concentration (IC50) in assay [3] and in assay [7] was no less than 1000 nM each time.
For `CC(C)(N)C(=O)N1CCN(C(=O)Nc2ccn(-c3ccc4c(c3)CCC(N3CCCC(N)CC3)C4)c(=O)n2)CC1` (stereo not shown) [Compound 43], the minimal inhibitory concentration (MIC) is less than 8 µg/mL in assay [1] (setting [8]); less than 8 µg/mL in assay [1] (CAMHB supplemented with sodium bicarbonate 25 mM, read-out: E.coli + bicarb 25 (MIC)); greater than 32 µg/mL in assay [2] (setting [9]); less than 8 µg/mL in assay [2] (CAMHB supplemented with sodium bicarbonate 25 mM, read-out: Ef +bicarb 25 (MIC)); less than 8 µg/mL in assay [4] (setting [10]); less than 8 µg/mL in assay [4] (CAMHB supplemented with sodium bicarbonate 25 mM, read-out: Sa + bicarb 25 (MIC)). For the same compound, the minimal inhibitory concentration (MIC) is greater than 32 µg/mL in assay [5] (setting [11]); 8 to 32 µg/mL (≈ 14.5 to 58.1 µM) in assay [5] (CAMHB supplemented with sodium bicarbonate 25 mM, read-out: Pa +bicarb 25 (MIC)); greater than 32 µg/mL in assay [6] (setting [12]); 8 to 32 µg/mL (≈ 14.5 to 58.1 µM) in assay [6] (CAMHB supplemented with sodium bicarbonate 25 mM, read-out: Ab +bicarb 25 (MIC)). In addition, the IC50 is less than 500 nM in assay [3] and no less than 1000 nM in assay [7].
As for `COC(=O)N[C@H]1CC[C@H](NC2CCc3cc(-n4ccc(NC(=O)N5CCN(C(=O)C(C)(C)N)CC5)nc4=O)ccc3C2)C1` (stereo partly drawn) [Compound 45, Methyl ((1S,3S)-3-((6-(4-(4-(2-amino-2-methylpropanoyl)piperazine-1-carboxamido)-2-oxopyrimidin-1(2H)-yl)-1,2,3,4-tetrahydronaphthalen-2-yl)amino)cyclopentyl)Carbamate Hydrochloride Salt], the minimum inhibitory concentration (MIC) in assay [1] (setting [13]), in assay [2] (setting [14]), in assay [4] (setting [15]), in assay [5] (setting [16]) and in assay [6] (setting [17]) was greater than 32 µg/mL each time. The IC50 in assay [3] and in assay [7] was no less than 1000 nM each time.
As to `CC(C)(N)C(=O)N1CCN(C(=O)Nc2ccn(-c3ccc4c(c3)CN([C@H]3CC[C@H](N)CC3)C4)c(=O)n2)CC1` [Compound 46, 4-(2-amino-2-methylpropanoyl)-N-(1-(2-((trans)-4-aminocyclohexyl)isoindolin-5-yl)-2-oxo-1,2-dihydropyrimidin-4-yl)piperazine-1-carboxamide hydrochloride salt], the MIC in assay [1] (read-out: E.coli + bicarb 25 (MIC)) is less than 8 µg/mL; in assay [2] (read-out: Ef +bicarb 25 (MIC)), 8 to 32 µg/mL; in assay [4] (read-out: Sa + bicarb 25 (MIC)) it was less than 8 µg/mL; in assay [5] (read-out: Pa +bicarb 25 (MIC)) it was 8 to 32 µg/mL; in assay [6] (read-out: Ab +bicarb 25 (MIC)) it was 8 to 32 µg/mL. The half-maximal inhibitory concentration (IC50) was less than 500 nM in assay [3] and no less than 1000 nM in assay [7].

The MIC is the smallest concentration in the dilution series that meets the test's criterion for growth inhibition. A word on the IC50: it is the concentration that gives 50% inhibition.
